These results are taken from US20030194434A1, “Bubbling tablet, bubbling bath additive tablet, bubbling washing detergent tablet, bubbling tablet for oral administration, and process for producing these” (priority 2000, published 2003).

This data set in a line: Kinetic viscosity of saccharide solution, Ubbelohde viscosimeter, Japanese Pharmacopoeia 13th edition. The data set is classed as physicochemical. The conditions noted are these: 0.5 g of component dissolved in 50 ml of water (25° C.). Here is the method:
The value shown after each component in parenthesis is the kinetic viscosity of the solution in which 0.5 g of each component is dissolved in 50 ml of water (25° C.).
`OC[C@@H](O)[C@@H](O[C@H]1O[C@H](CO)[C@@H](O)[C@H](O)[C@H]1O)[C@H](O)[C@@H](O)CO` [maltitol]: the kinetic viscosity is listed as 0.904 cSt.
In turn, `OC[C@H]1O[C@@](CO)(O[C@H]2O[C@H](CO)[C@@H](O)[C@H](O)[C@H]2O)[C@@H](O)[C@@H]1O` [sucrose] registered a kinetic viscosity of 0.912 cSt.
`OC[C@@H](O)[C@H](O)[C@@H](O)CO` [xylitol] returned a kinetic viscosity of 0.904 cSt.
Turning to `OC[C@@H](O)[C@@H](O)[C@H](O)[C@@H](O)CO` [sorbitol], the kinetic viscosity came to 0.897 cSt.
As for `OC[C@@H](O)[C@@H](O)[C@H](O)[C@H](O)CO` [mannitol], the figure is 0.896 cSt; as for `OC[C@H]1O[C@H](O[C@H]2O[C@H](CO)[C@@H](O)[C@H](O)[C@H]2O)[C@H](O)[C@@H](O)[C@@H]1O` [trehalose], 0.891 cSt.
